Measurements: patent US20130310374A1, “Substituted Imidazoquinoline Derivatives” (PIRAMAL ENTERPRISES LIMITED`, priority 2010, published 2013)

Assays:
KCL22 = test: Cytotoxicity propidium iodide assay, KCL22; type: cell-based; conditions: Homo sapiens, KCL-22; KCL22 (CML), 48 hours treatment; read-out: IC50 Values in μM, C6f
Method: The assay was designed as in the reference, Anticancer Drugs, 2002, 13, 1-8, the disclosure of which is incorporated herein by reference for the teaching of the assay.
Cells from cell lines (ATCC) as mentioned in the table given below were seeded at a density of 3000 cells/well in a white opaque 96-well plate. Following incubation at 37° C./5% CO2 for a period of 18-24 hours, the cells were treated with various concentrations (stock solution was prepared in DMSO and subsequent dilutions were made in media as per ATCC guidelines) of the compounds of the present invention for a period of 48 hours. At the end of treatment, the culture medium was discarded, the cells were washed with 1×PBS and 200 μL of […] propidium iodide was added to each well. […] For analysis, the plates were warmed to RT, allowed to thaw and were read in PoleStar fluorimeter with the fluorescence setting. The percentage of viable cells in the non-treated set of wells was considered to be 100 and the percentage viability following treatment was calculated accordingly. IC50 values were calculated from graphs plotted using these percentages. IC50 values for certain compounds of present invention are depicted in Table 1 and % Inhibition of certain compounds of present invention are depicted in Table 2.

mTOR = biological target: T1, mTOR (Homo sapiens, UniProt P42345); test: mTOR inhibition assay (ProQinase); type: biochemical; conditions: tested at ProQinase, Germany; read-out: IC50, mTOR enzyme activity
T1 construct: ProQinase, Germany (contract testing)
Method: The compounds of the present invention were tested at ProQinase, Germany.

[1] = test system: Human umbilical vein endothelial cells (HUVECs); test: VEGF induced tube formation assay; type: cell-based; conditions: HUVECs on Matrigel, compound 75 nM, 18 hours; FIG. 2
Method: Protocol for Tube Formation Assay
Cell Culture: Human umbilical vein endothelial cells (HUVECs) (ATCC) used in passages 2-7. The cells were grown in endothelial medium (Promocell, Germany) supplemented with 20% fetal bovine serum (FBS), 100 units/mL penicillin, 100 μg/mL streptomycin, 3 ng/mL basic fibroblast growth factor, and 5 units/mL heparin at 37° C. under a humidified 95% (v/v) mixture of air and CO2.
Tube Formation Assay: 250 μl of growth factor-reduced Matrigel (BD Biosciences) was pipetted into a 24 well tissue culture plate and polymerized for 30 minutes at 37° C. HUVECs incubated in endothelial media containing 1% FBS for 6 hours were harvested after trypsin treatment and suspended in endothelial media containing 1% FBS. Compounds of present invention (75 nM) were added to the cells for 30 minutes at RT before seeding and plated onto the layer of Matrigel at a density of 2×10^4 cells/well, and followed by the addition of 2 mL of 40 ng/mL VEGF. After 18 hours, the cultures were photographed.
Results: When HUVECs were placed on growth factor-reduced Matrigel in the presence of VEGF, VEGF led to the formation of elongated and robust tube-like structures, which were organized by much larger number of cells compared with the control.

[2] = test system: human PANC-1 xenograft tumors; test: Pancreatic cancer xenograft model (tumor growth inhibition in vivo); parameters: species or system mouse; conditions: SCID mice, 3 mpk once daily p.o., 14 days; FIG. 3B
Method: Animals: Severe combined immunodeficient (SCID) mice (Male and Female) 6 to 8 weeks old, were used. Animals were housed in suitable cages under specified pathogen-free conditions in rooms maintained at 23° C. and 50% humidity, with a 12-hour light/12-hour dark cycle. The mice were quarantined during the acclimatization period of at least a week.
Pancreatic Cancer xenograft model: The human pancreatic carcinoma cells, (PANC-1) (ATCC) were grown in Eagle's Minimum Essential Medium (SAFC, US) supplemented with 10% (v/v) fetal bovine serum. The cells were incubated at 37° C. in a humidified atmosphere containing 5% CO2. […]
Tumor-bearing mice were randomized in two groups when the mean tumor weight was ˜100 mg. […] Twice a week, each xenograft was measured in two dimensions (a=length; b=width) with a caliper. Tumor volume (V) was determined by the following equation:
Tumor volumes were converted into tumor weights assuming a tumor density of 1 mm^3=1 mg. Tumor growth inhibition (TGI) for each group was calculated according to the following formula: […]
Wherein, T and T0 are the mean tumor volumes on a specific experimental day and on day 1 of treatment, respectively, for the experimental groups. […] Animals in each group were observed every day for signs of health deterioration and animal weight was recorded daily. […]

Structure (SMILES): Cn1c(=O)n(-c2ccc(C(C)(C)C#N)nc2)c2c3cc(-c4cnc(N)c(C(F)(F)F)c4)ccc3ncc21 [Example 3, 2-(5-(8-(6-Amino-5-(trifluoromethyl)pyridin-3-yl)-3-methyl-2-oxo-2,3-dihydro-1H-imidazo[4,5-c]quinolin-1-yl)pyridin-2-yl)-2-methylpropanenitrile]
- IC50 (KCL22): 2 µM

Structure (SMILES): CS(=O)(=O)O.Cn1c(=O)n(-c2ccc(C(C)(C)C#N)nc2)c2c3cc(-c4cnc(N)c(C(F)(F)F)c4)ccc3ncc21 [Example 3a, 8-(6-Amino-5-(trifluoromethyl)pyridin-3-yl)-1-(6-(2-cyanopropan-2-yl)pyridin-3-yl)-3-methyl-2-oxo-2,3-dihydro-1H-imidazo[4,5-c]quinolin-5-ium methanesulfonate]
- IC50 (mTOR): 4.4 nM
- VEGF (40 ng/mL) induced tube formation [1]: effectively abrogated the width and the length of endothelial tubes induced by VEGF
- Growth of pancreatic tumors, PANC-1 xenograft [2]: effectively inhibited the growth of pancreatic tumors
